In US8349368B2, “Compositions and methods for treating vaginal infections and pathogenic vaginal biofilms” (priority 2007, dated 2013):
In brackets after ≈: the same amount, converted by molar mass. Entries after “also recorded” stand apart in the source; their conditions may differ. Blank lines part the entries; values can stand above or below the molecule they belong to.

Legend:
[1] = test system: C. albicans; experiment: planktonic MIC, standard MIC methodologies; settings: Candida albicans, read-out: planktonic MIC
[2] = test system: G. vaginalis; experiment: planktonic MIC, standard MIC methodologies; type: cell-based, G. vaginalis ATCC #14018; settings: Gardnerella vaginalis
Experimental: (§1) As a prelude to the biofilm experiments, the planktonic (i.e., free-floating vs. biofilm-associated) MIC values for boric acid and EDTA against both test organisms were established utilizing standard MIC methodologies. In contrast to C. albicans, the planktonic MIC values for boric acid and EDTA against G. vaginalis had not previously been reported.
(§2) In preparation of the biofilm experiments relating to the invention, overnight cultures of C. albicans and G. vaginalis were prepared by adding 1 mL frozen stock to 9 mL growth media (either G. vaginalis ATCC #14018 in 50% BHI broth+1% starch, or C. albicans ATCC #96113 in 50% SD broth+1% sucrose) and incubated for 24 hours at 37° C., C. albicans was grown under atmospheric conditions while G. vaginalis was grown with the addition of 5% CO2.
(§3) Next, the 24 biofilm-covered coupons were aseptically removed from the CDC reactor and placed in a 24-well plate, with each well containing 2 mL of test solution. The test solutions were run in triplicate and included varied concentrations of boric acid (BA) and EDTA or a combination thereof. […] Fluconazole at a concentration of 8 μg/mL was selected as the treatment control for C. albicans.

[3] = test system: recurrent BV
Experimental: A retrospective case review was conducted of the use of boric acid in a series of patients with recurrent BV. Boric acid was employed as an antimicrobial agent as part of a 6-month sequential treatment protocol.
With the exception of boric acid, all of the other antimicrobials used were FDA approved for BV. The 6-month protocol was as follows: • 1. Induction: oral metronidazole or tinidazole twice daily for 7-10 days • 2. Boric acid treatment: 600-mg gelatin capsule inserted vaginally daily for 21 days • 3.

[4] = test system: common bacterial pathogens; settings: literature (Meers 1990); cited from earlier work
[5] = test system: clinical isolates of C. albicans as well as non-albicans species; settings: literature (Shubair 1990; Prutting 1998); cited from earlier work
[6] = including vaginal secretions and tissues; oral dosing, maximum daily dose 400 mg; cited from earlier work
[7] = test system: BV biofilm; settings: oral 500 mg twice daily for 7 days, cited from earlier work
[8] = test system: G. vaginalis biofilm; experiment: biofilm disruption in CDC biofilm reactor; type: cell-based, G. vaginalis ATCC #14018; settings: metronidazole 192 μg/mL, 24-hour treatment
Experimental: as §1, §2, §3

[9] = test system: G. vaginalis isolates; settings: conventional planktonic MIC testing; cited from earlier work

MIC [1]: 780 µg/mL (≈ 2.67 mM)
MIC [2]: 190 µg/mL
Structure (SMILES): O=C(O)CN(CCN(CC(=O)O)CC(=O)O)CC(=O)O [EDTA, ethylene-diamine-tetra-acetic acid]

Structure (SMILES): OB(O)O [boric acid]
treatment failures during boric acid therapy ([3]; 600-mg vaginal capsule daily for 21 days): none of the treatment failures occurred during boric acid therapy
patients remaining cured ([3]; at 9 months (3 months after maintenance)): Sixty-seven
patients clinically cured (asymptomatic and negative for Amsel's criteria) ([3]; end of 6 months, nitroimidazole induction, boric acid 600 mg vaginally daily 21 days, metronidazole gel maintenance, 24/31): 77%
secondary yeast infection or discontinuation because of adverse event or intolerance ([3]; in vivo): none of the patients experienced a secondary yeast infection or discontinued
median duration of remission ([3]; retrospective case series): 8.7 months
antibacterial activity in vitro [4]: bacteriostatic activity
MIC [1]: 1560 µg/mL (≈ 25.2 mM)
antifungal activity in vitro [5]: weakly fungistatic
MIC [2]: 3120 µg/mL

Structure (SMILES): OC(Cn1cncn1)(Cn1cncn1)c1ccc(F)cc1F [fluconazole, Fluconazole]
drug levels achieved in biologic fluids and tissues [6]: 4.12-8.08 μg/mL

MIC [2]: 128 µg/mL
Structure (SMILES): Cc1ncc([N+](=O)[O-])n1CCO [metronidazole]
vaginal biopsy result (fluorescent in situ hybridization) ([7]; G. vaginalis and Atopobium): persistent accumulation of core pathogenic bacteria
clinical response by standard clinical and microbiologic methods ([7]; each time point): resolution of BV
effect of active control on G. vaginalis biofilm [8]: little impact; also recorded: minimal impact
susceptibility of G. vaginalis isolates [9]: good susceptibility
